Experiments:
Test in all cases: relative viability (nuclei count vs DMSO), 5 days (fraction); higher = more cells survive
Vemurafenib + Crizotinib = compound: CCCS(=O)(=O)Nc1ccc(F)c(C(=O)c2c[nH]c3ncc(-c4ccc(Cl)cc4)cc23)c1F [Vemurafenib] + C[C@@H](Oc1cc(-c2cnn(C3CCNCC3)c2)cnc1N)c1c(Cl)ccc(F)c1Cl [Crizotinib] (partner 1 µM)
Procedure, shortened: (§1)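 Each reported value is a median over duplicate plates. It expresses relative viability: treated-well nuclei count divided by vehicle-well nuclei count. Lung cancer cell lines in 1536-well plates were dosed by pin tool a day after seeding, alone with one drug or with a fixed anchor-drug dose plus five library-drug doses (not always all listed) in √10 steps, and nuclei were counted after 5 days.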

OSI-027 + Bortezomib = compound: COc1cccc2cc(-c3nc([C@H]4CC[C@H](C(=O)O)CC4)n4ncnc(N)c34)[nH]c12 [OSI-027] + CC(C)C[C@H](NC(=O)[C@H](Cc1ccccc1)NC(=O)c1cnccn1)B(O)O [Bortezomib] (partner 0.002 µM)
Procedure, shortened: as §1

OSI-027 + Tozasertib = compound: COc1cccc2cc(-c3nc([C@H]4CC[C@H](C(=O)O)CC4)n4ncnc(N)c34)[nH]c12 [OSI-027] + Cc1cc(Nc2cc(N3CCN(C)CC3)nc(Sc3ccc(NC(=O)C4CC4)cc3)n2)n[nH]1 [Tozasertib] (partner 0.1 µM)
Procedure, shortened: as §1

OSI-027 + Pemetrexed = compound: COc1cccc2cc(-c3nc([C@H]4CC[C@H](C(=O)O)CC4)n4ncnc(N)c34)[nH]c12 [OSI-027] + Nc1nc2[nH]cc(CCc3ccc(C(=O)N[C@@H](CCC(=O)O)C(=O)O)cc3)c2c(=O)[nH]1 [Pemetrexed] (partner 0.2 µM)
Procedure, shortened: as §1

RERF-LC-KJ
relative viability (Vemurafenib + Crizotinib; first compound 0.03162 µM): 0.838 | relative viability (Vemurafenib + Crizotinib; first compound 0.1 µM): 0.834 | relative viability (Vemurafenib + Crizotinib; first compound 0.3162 µM): 0.832 | relative viability (Vemurafenib + Crizotinib; first compound 1 µM): 0.922 | relative viability (OSI-027 + Bortezomib; first compound 0.01 µM): 1.18 | relative viability (OSI-027 + Bortezomib; first compound 0.03162 µM): 0.948 | relative viability (OSI-027 + Bortezomib; first compound 0.1 µM): 1.03 | relative viability (OSI-027 + Bortezomib; first compound 0.3162 µM): 0.808 | relative viability (OSI-027 + Bortezomib; first compound 1 µM): 0.511 | relative viability (OSI-027 + Tozasertib; first compound 0.01 µM): 0.453 | relative viability (OSI-027 + Tozasertib; first compound 0.03162 µM): 0.531 | relative viability (OSI-027 + Tozasertib; first compound 0.1 µM): 0.477 | relative viability (OSI-027 + Tozasertib; first compound 0.3162 µM): 0.468 | relative viability (OSI-027 + Tozasertib; first compound 1 µM): 0.385 | relative viability (OSI-027 + Pemetrexed; first compound 0.01 µM): 0.466 | relative viability (OSI-027 + Pemetrexed; first compound 0.03162 µM): 0.48 | relative viability (OSI-027 + Pemetrexed; first compound 0.1 µM): 0.464 | relative viability (OSI-027 + Pemetrexed; first compound 0.3162 µM): 0.463 | relative viability (OSI-027 + Pemetrexed; first compound 1 µM): 0.375

HARA
relative viability (Vemurafenib + Crizotinib; first compound 0.03162 µM): 1.04 | relative viability (Vemurafenib + Crizotinib; first compound 0.3162 µM): 1.09 | relative viability (Vemurafenib + Crizotinib; first compound 1 µM): 1.07 | relative viability (OSI-027 + Bortezomib; first compound 0.01 µM): 1.12 | relative viability (OSI-027 + Bortezomib; first compound 0.03162 µM): 1.1 | relative viability (OSI-027 + Bortezomib; first compound 0.1 µM): 1.15 | relative viability (OSI-027 + Bortezomib; first compound 0.3162 µM): 0.979 | relative viability (OSI-027 + Bortezomib; first compound 1 µM): 0.67 | relative viability (OSI-027 + Tozasertib; first compound 0.01 µM): 0.472 | relative viability (OSI-027 + Tozasertib; first compound 0.03162 µM): 0.099 | relative viability (OSI-027 + Tozasertib; first compound 0.1 µM): 0.115 | relative viability (OSI-027 + Tozasertib; first compound 0.3162 µM): 0.0843 | relative viability (OSI-027 + Tozasertib; first compound 1 µM): 0.106 | relative viability (OSI-027 + Pemetrexed; first compound 0.01 µM): 0.249 | relative viability (OSI-027 + Pemetrexed; first compound 0.03162 µM): 0.221 | relative viability (OSI-027 + Pemetrexed; first compound 0.1 µM): 0.231 | relative viability (OSI-027 + Pemetrexed; first compound 0.3162 µM): 0.227 | relative viability (OSI-027 + Pemetrexed; first compound 1 µM): 0.264

A-427
relative viability (Vemurafenib + Crizotinib; first compound 0.03162 µM): 0.819 | relative viability (Vemurafenib + Crizotinib; first compound 0.1 µM): 0.983 | relative viability (Vemurafenib + Crizotinib; first compound 0.3162 µM): 0.919 | relative viability (Vemurafenib + Crizotinib; first compound 1 µM): 0.815 | relative viability (OSI-027 + Bortezomib; first compound 0.01 µM): 1.13 | relative viability (OSI-027 + Bortezomib; first compound 0.03162 µM): 0.965 | relative viability (OSI-027 + Bortezomib; first compound 0.1 µM): 0.967 | relative viability (OSI-027 + Bortezomib; first compound 0.3162 µM): 0.803 | relative viability (OSI-027 + Bortezomib; first compound 1 µM): 0.578 | relative viability (OSI-027 + Tozasertib; first compound 0.01 µM): 0.231 | relative viability (OSI-027 + Tozasertib; first compound 0.03162 µM): 0.201 | relative viability (OSI-027 + Tozasertib; first compound 0.1 µM): 0.159 | relative viability (OSI-027 + Tozasertib; first compound 0.3162 µM): 0.219 | relative viability (OSI-027 + Tozasertib; first compound 1 µM): 0.192 | relative viability (OSI-027 + Pemetrexed; first compound 0.01 µM): 0.575 | relative viability (OSI-027 + Pemetrexed; first compound 0.03162 µM): 0.966 | relative viability (OSI-027 + Pemetrexed; first compound 0.1 µM): 0.783 | relative viability (OSI-027 + Pemetrexed; first compound 0.3162 µM): 0.737 | relative viability (OSI-027 + Pemetrexed; first compound 1 µM): 0.616

NCI-H2023
relative viability (Vemurafenib + Crizotinib; first compound 0.03162 µM): 0.534 | relative viability (Vemurafenib + Crizotinib; first compound 0.1 µM): 0.452 | relative viability (Vemurafenib + Crizotinib; first compound 0.3162 µM): 0.704 | relative viability (Vemurafenib + Crizotinib; first compound 1 µM): 0.675 | relative viability (OSI-027 + Bortezomib; first compound 0.01 µM): 0.944 | relative viability (OSI-027 + Bortezomib; first compound 0.03162 µM): 0.926 | relative viability (OSI-027 + Bortezomib; first compound 0.1 µM): 0.898 | relative viability (OSI-027 + Bortezomib; first compound 0.3162 µM): 0.687 | relative viability (OSI-027 + Bortezomib; first compound 1 µM): 0.358 | relative viability (OSI-027 + Tozasertib; first compound 0.01 µM): 0.424 | relative viability (OSI-027 + Tozasertib; first compound 0.03162 µM): 0.319 | relative viability (OSI-027 + Tozasertib; first compound 0.1 µM): 0.352 | relative viability (OSI-027 + Tozasertib; first compound 0.3162 µM): 0.348 | relative viability (OSI-027 + Tozasertib; first compound 1 µM): 0.244 | relative viability (OSI-027 + Pemetrexed; first compound 0.01 µM): 0.254 | relative viability (OSI-027 + Pemetrexed; first compound 0.03162 µM): 0.242 | relative viability (OSI-027 + Pemetrexed; first compound 0.1 µM): 0.201 | relative viability (OSI-027 + Pemetrexed; first compound 0.3162 µM): 0.173 | relative viability (OSI-027 + Pemetrexed; first compound 1 µM): 0.121
